Where “and” joins values, the source holds several entries; their conditions need not be identical. Identical values can stand only once. Like-named read-outs stand apart in the source and are kept apart here.
B1: PK1: Recombinant human prokineticin-1 expressed in HEK 293 cells; preparation holds full-length ligand and a four C-terminal residue truncated product (protein, UniProt P58294 20-105, looked up)
Prokineticin-1: AVITGACERDVQCGAGTCCAISLWLRGLRMCTPLGREGEECHPGSHKVPFFRKRKHHTCPCLPNLLCSRFPDGRYRCSMDLKNINF
modifications: mixture with C-terminally truncated product
notes: Recombinant human prokineticin-1 expressed in HEK 293 cells; preparation holds full-length ligand and a four C-terminal residue truncated product

Tests used:
rat ileal tissues = assay: PK1-evoked short-circuit current (Isc) in rat ileum mucosa, Ussing-type flux chambers
[1] = biological target: T1, GPR73 (prokineticin 1 receptor) (Homo sapiens, UniProt Q8TCW9); assay: PK1 functional assay: Ca2+ mobilization on the FLIPR; type: cell-based; conditions: for inhibition at 10 µM: read-out: Ca^2+ Mobilization % Inh @10 µM; for IC50: HEK 293 GPR73 cells, read-out: Ca^2+ Mobilization IC50
T1 construct: expressed in transfected cells; host or cells: HEK 293
T1 sequence (Q8TCW9 whole entry, species assumed): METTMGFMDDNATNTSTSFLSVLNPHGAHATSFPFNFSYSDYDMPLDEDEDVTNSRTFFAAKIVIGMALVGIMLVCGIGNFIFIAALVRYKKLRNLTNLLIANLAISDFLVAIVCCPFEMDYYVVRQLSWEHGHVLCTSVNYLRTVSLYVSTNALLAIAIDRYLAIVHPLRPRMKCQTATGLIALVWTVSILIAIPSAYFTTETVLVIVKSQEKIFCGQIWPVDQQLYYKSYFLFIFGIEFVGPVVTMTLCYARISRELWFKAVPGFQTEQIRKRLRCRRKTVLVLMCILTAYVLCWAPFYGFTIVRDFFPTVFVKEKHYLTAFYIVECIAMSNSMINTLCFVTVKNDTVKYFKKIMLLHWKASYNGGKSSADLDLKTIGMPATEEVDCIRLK
Protocol: At a time of 24 h prior to running the assay, in cell culture media (DMEM containing high Glucose and L-glutamine, 10% FBS, 1% Pen/Streptomycin, 1% Sodium Pyruvate, 20 mM HEPES, Zeocin 200 mg/L), 100 µL of 1.3*10^6/ml HEK 293 GPR73 (prokineticin 1 receptor) expressing cells were plated in a 96 well poly-d-lysine coated plate (Costar), and incubated at 37° C. and 5% CO2. On the day in which the assay was run, the media was removed and 200 µL of 5× Calcium Plus Dye (Molecular Devices) which was previously resuspended with 200 mL of assay buffer [HBSS w/Ca^2+ and Mg^2+ w/o phenol red, 20 mM HEPES, 0.1% BSA, 10 mL probenecid (710 mg probenecid in 5 mL of 1N NaOH, to which was then added 5 mL HBSS containing 20 mM HEPES)] was added to each well of the 96-well plate. The plate was incubated at 37° C. and 5% CO2 for 30 min in dark. The plate was removed and allowed to reach RT for 15 min in the dark. The assay was then run on the FLIPR. In Brief: base line read for 1 min, compound added (25 μL) and incubated for 4 min, 15 seconds, PK1 ligand preparation added (25 μL) for a final concentration of a previously determined EC50 and fluorescence was counted for 1 min, 45 seconds. Baseline is described as the amount of relative fluorescence read when buffer alone is added to cells. Baseline was subtracted from all wells. Percent of control was calculated as follows: (Baseline subtracted well value is divided by baseline subtracted max value)*100. Percent inhibition is 100 minus the percent of control value.
The IC50 is defined as the amount of a given compound required to inhibit 50% of the maximum signal that is generated by the concentration of PK1 preparation used in our assay. IC50 values were calculated using GraphPad Prism.

[2] = tested on: ileum mucosal tissues from PK1 receptor knock-out mice; assay: PK1-evoked Isc in ileum mucosal tissues from PK1 receptor knock-out mice; conditions: exogenous PK1 peptide

Row | Molecule | inhibition at 10 µM ([1]; 10 µM) | IC50 [1] | also measured
1 | CN1[C@@H]2CC[C@H]1C[C@@H](OC(=O)C(CO)c1ccccc1)C2 (stereo partly shown) [Atropine, reference compound] |  |  | blockade of the pro-secretory effect of PK1 (rat ileal tissues): not blocked
2 | Nc1ncc(CCNc2nc(=O)n(Cc3ccc(F)cc3)c(=O)n2Cc2ccc(OC(F)(F)F)cc2)[nH]1 [Cpd 54, 6-[2-(2-Amino-3H-imidazol-4-yl)-ethylamino]-3-(4-fluoro-benzyl)-1-(4-trifluoromethoxy-benzyl)-1H-[1,3,5]triazine-2,4-dione] | 96% | 27 nM and 183 nM | inhibition at 10 µM ([1]; 10 µM, (further determination)): 95%; IC50 ([1]; IC50 (further determination)): 97 nM
3 | COc1cccc2c1nc(N)n2CCNc1nc(=O)n(Cc2ccc(F)cc2)c(=O)n1Cc1ccc(OC(F)F)cc1 [Cpd 55] | 91% | 233 nM | 
4 | NC1=Nc2ccc(O)cc2CN1CCNc1nc(=O)n(Cc2ccc(F)cc2)c(=O)n1Cc1ccc(OC(F)F)cc1 [Cpd 56] | 100% | 161 nM | 
5 | COc1ccc2c(c1)N=C(N)N(CCNc1nc(=O)n(Cc3ccc(F)cc3)c(=O)n1Cc1ccc(OC(F)F)cc1)C2 [Cpd 57] | 95% | 144 nM | 
6 | COc1ccc(Cn2c(NCCc3cnc(N)[nH]3)nc(=O)n(Cc3ccc(Cl)c(Cl)c3)c2=O)cc1 [Cpd 59] | 96% | 49 nM | 
7 | CCc1ccc(Cn2c(=O)nc(NCCc3cnc(N)[nH]3)n(Cc3ccc(OC)cc3)c2=O)cc1 [Cpd 60] | 85% | 295 nM | 
8 | COc1ccc(Cn2c(NCCc3cnc(N)[nH]3)nc(=O)n(Cc3ccc(SC)cc3)c2=O)cc1 [Cpd 61] | 101% | 21 nM | inhibition at 10 µM ([1]; 10 µM, (further determination)): 102%; IC50 ([1]; IC50 (further determination)): 19 nM
9 | COc1ccc(Cn2c(NCCc3cnc(N)[nH]3)nc(=O)n(Cc3ccc4c(c3)CCO4)c2=O)cc1 [Cpd 62] | 97% | 241 nM | 
10 | Nc1ncc(CCNc2nc(=O)n(Cc3ccc(Cl)c(Cl)c3)c(=O)n2Cc2ccc3c(c2)CCO3)[nH]1 [Cpd 63] | 54% | 2010 nM | 
11 | CSc1ccc(Cn2c(=O)nc(NCCc3cnc(N)[nH]3)n(Cc3ccc4c(c3)CCO4)c2=O)cc1 [Cpd 64] | 93% | 170 nM | 
12 | CCc1ccc(Cn2c(=O)nc(NCCc3cnc(N)[nH]3)n(Cc3ccc4c(c3)CCO4)c2=O)cc1 [Cpd 65] | 35% | > 10000 nM | 
13 | Nc1ncc(CCNc2nc(=O)n(Cc3ccc4c(c3)CCO4)c(=O)n2Cc2ccc3c(c2)CCO3)[nH]1 [Cpd 66] | 69% | 2420 nM | 
14 | COc1ccc(Cn2c(NCCc3cnc(N)[nH]3)nc(=O)n(Cc3ccc4c(c3)nnn4C)c2=O)cc1 [Cpd 67] | 93% | 171 nM | 
15 | Cn1nnc2cc(Cn3c(=O)nc(NCCc4cnc(N)[nH]4)n(Cc4ccc5c(c4)CCO5)c3=O)ccc21 [Cpd 68] | 78% | 1410 nM | 
16 | COc1ccc(Cn2c(NCCn3c(N)nc4ccccc43)nc(=O)n(Cc3ccc(Cl)c(Cl)c3)c2=O)cc1 [Cpd 69] | 102% | 66 nM | 
17 | COc1ccc(Cn2c(NCCn3c(N)nc4ccccc43)nc(=O)n(Cc3ccc(SC)cc3)c2=O)cc1 [Cpd 70] | 103% | 22 nM | 
18 | CCc1ccc(Cn2c(=O)nc(NCCn3c(N)nc4ccccc43)n(Cc3ccc(OC)cc3)c2=O)cc1 [Cpd 71] | 101% | 90 nM | 

Row | Molecule | inhibition at 10 µM ([1]; 10 µM) | IC50 [1] | also measured
19 | COc1ccc(Cn2c(NCCn3c(N)nc4ccccc43)nc(=O)n(Cc3ccc4c(c3)CCO4)c2=O)cc1 [Cpd 72] | 102% | 58 nM | 
20 | Nc1nc2ccccc2n1CCNc1nc(=O)n(Cc2ccc(Cl)c(Cl)c2)c(=O)n1Cc1ccc2c(c1)CCO2 [Cpd 73] | 90% | 186 nM | 
21 | CSc1ccc(Cn2c(=O)nc(NCCn3c(N)nc4ccccc43)n(Cc3ccc4c(c3)CCO4)c2=O)cc1 [Cpd 74] | 102% | 34 nM | 
22 | CCc1ccc(Cn2c(=O)nc(NCCn3c(N)nc4ccccc43)n(Cc3ccc4c(c3)CCO4)c2=O)cc1 [Cpd 75] | 83% | 507 nM | 
23 | Nc1nc2ccccc2n1CCNc1nc(=O)n(Cc2ccc3c(c2)CCO3)c(=O)n1Cc1ccc2c(c1)CCO2 [Cpd 76] | 97% | 225 nM | 
24 | COc1ccc(Cn2c(NCCn3c(N)nc4ccccc43)nc(=O)n(Cc3ccc4c(c3)nnn4C)c2=O)cc1 [Cpd 77] | 99% | 55 nM | 
25 | Cn1nnc2cc(Cn3c(=O)nc(NCCn4c(N)nc5ccccc54)n(Cc4ccc5c(c4)CCO5)c3=O)ccc21 [Cpd 78] | 102% | 66 nM | inhibition at 10 µM ([1]; 10 µM, (further determination)): 104%; IC50 ([1]; IC50 (further determination)): 130 nM
26 | Nc1ncc(CCNc2nc(=O)n(Cc3ccc(Cl)c(Cl)c3)c(=O)n2Cc2ccc(OC(F)F)cc2)[nH]1 [Cpd 79] | 96% | 102 nM | 
27 | CSc1ccc(Cn2c(=O)nc(NCCc3cnc(N)[nH]3)n(Cc3ccc(OC(F)F)cc3)c2=O)cc1 [Cpd 80] | 98% | 32 nM | 
28 | CCc1ccc(Cn2c(=O)nc(NCCc3cnc(N)[nH]3)n(Cc3ccc(OC(F)F)cc3)c2=O)cc1 [Cpd 81] | 90% | 502 nM | 
29 | Nc1ncc(CCNc2nc(=O)n(Cc3ccc4c(c3)CCO4)c(=O)n2Cc2ccc(OC(F)F)cc2)[nH]1 [Cpd 82] | 96% | 202 nM | 
30 | Cn1nnc2cc(Cn3c(=O)nc(NCCc4cnc(N)[nH]4)n(Cc4ccc(OC(F)F)cc4)c3=O)ccc21 [Cpd 83] | 98% | 224 nM | 
31 | Nc1nc2ccccc2n1CCNc1nc(=O)n(Cc2ccc(Cl)c(Cl)c2)c(=O)n1Cc1ccc(OC(F)F)cc1 [Cpd 84] | 97% | 345 nM | 
32 | CSc1ccc(Cn2c(=O)nc(NCCn3c(N)nc4ccccc43)n(Cc3ccc(OC(F)F)cc3)c2=O)cc1 [Cpd 85] | 99% | 157 nM | 
33 | CCc1ccc(Cn2c(=O)nc(NCCn3c(N)nc4ccccc43)n(Cc3ccc(OC(F)F)cc3)c2=O)cc1 [Cpd 86] | 94% | 337 nM | 
34 | Nc1nc2ccccc2n1CCNc1nc(=O)n(Cc2ccc3c(c2)CCO3)c(=O)n1Cc1ccc(OC(F)F)cc1 [Cpd 87] | 102% | 223 nM | 
35 | NC1=N[C@H](O)[C@H]2[C@H]3O[C@]4(O)O[C@@H]([C@@H](O)[C@@]2(N1)[C@@H]4O)[C@]3(O)CO [Tetrodotoxin, reference compound] |  |  | blockade of the pro-secretory effect of PK1 (rat ileal tissues): not blocked
36 | B1 |  |  | effect on tissue conductance (G) (rat ileal tissues): no significant effect; increase in Isc from baseline (rat ileal tissues; 10 nM PK1): 13.5±2. […]A/cm^2; increase in Isc from baseline (rat ileal tissues; 100 nM PK1): 28.7±2.9 µA/cm^2; EC50 (rat ileal tissues; read-out: EC50 of PK1-evoked increases in Isc, cumulative concentration-response, basolateral addition): ~8.2 nM; change in Isc compared to wild-type littermates [2]: failed to elicit a significant change

Source: patent US8324380B2, “Amino-heteroaryl-containing prokineticin 1 receptor antagonists” (Janssen Pharmaceutica NV, priority 2007, dated 2012)
